Here are results for 9 compounds from ChEMBL document CHEMBL5625277, “Systematical mutational analysis of teriparatide on anti-osteoporosis activity by alanine scanning” (Bioorg Med Chem Lett, 2024).

A short description of this series: Cytotoxicity in pre-osteoblasts (unknown origin) assessed as cell death upto 5 uM by CCK8 assay. It is filed as toxicity, cell-based. The note with it: pre-osteoblast. On the technique in general: Tetrazolium assays rely on reduction of a dye to a coloured formazan, in cell work by metabolically active cells.

For the compound `CC[C@H](C)[C@H](NC(=O)[C@H](CCC(=O)O)NC(=O)[C@H](CO)NC(=O)[C@@H](NC(=O)[C@H](CO)NC(C)=O)C(C)C)C(=O)N[C@@H](CCC(N)=O)C(=O)N[C@@H](CC(C)C)C(=O)N[C@@H](CCSC)C(=O)N[C@@H](Cc1cnc[nH]1)C(=O)N[C@@H](CC(N)=O)C(=O)N[C@@H](CC(C)C)C(=O)NCC(=O)N[C@@H](CCCCN)C(=O)N[C@@H](Cc1cnc[nH]1)C(=O)N[C@@H](CC(C)C)C(=O)N[C@@H](CC(N)=O)C(=O)N[C@@H](CO)C(=O)N[C@@H](CCSC)C(=O)N[C@@H](CCC(=O)O)C(=O)N[C@@H](CCCNC(=N)N)C(=O)N[C@H](C(=O)N[C@@H](CCC(=O)O)C(=O)N[C@@H](Cc1c[nH]c2ccccc12)C(=O)N[C@@H](CC(C)C)C(=O)N[C@@H](C)C(=O)N[C@@H](CCCCN)C(=O)N[C@@H](CCCCN)C(=O)N[C@@H](CC(C)C)C(=O)N[C@@H](CCC(N)=O)C(=O)N[C@@H](CC(=O)O)C(=O)N[C@H](C(=O)N[C@@H](Cc1cnc[nH]1)C(=O)N[C@@H](CC(N)=O)C(=O)N[C@@H](Cc1ccccc1)C(N)=O)C(C)C)C(C)C`, the Activity entry is recorded as “Non-Toxic”.

In the case of `CC[C@H](C)[C@H](NC(=O)[C@H](CCC(=O)O)NC(=O)[C@H](CO)NC(=O)[C@@H](NC(=O)[C@H](C)NC(C)=O)C(C)C)C(=O)N[C@@H](CCC(N)=O)C(=O)N[C@@H](CC(C)C)C(=O)N[C@@H](CCSC)C(=O)N[C@@H](Cc1cnc[nH]1)C(=O)N[C@@H](CC(N)=O)C(=O)N[C@@H](CC(C)C)C(=O)NCC(=O)N[C@@H](CCCCN)C(=O)N[C@@H](Cc1cnc[nH]1)C(=O)N[C@@H](CC(C)C)C(=O)N[C@@H](CC(N)=O)C(=O)N[C@@H](CO)C(=O)N[C@@H](CCSC)C(=O)N[C@@H](CCC(=O)O)C(=O)N[C@@H](CCCNC(=N)N)C(=O)N[C@H](C(=O)N[C@@H](CCC(=O)O)C(=O)N[C@@H](Cc1c[nH]c2ccccc12)C(=O)N[C@@H](CC(C)C)C(=O)N[C@@H](CCCNC(=N)N)C(=O)N[C@@H](CCCCN)C(=O)N[C@@H](CCCCN)C(=O)N[C@@H](CC(C)C)C(=O)N[C@@H](CCC(N)=O)C(=O)N[C@@H](CC(=O)O)C(=O)N[C@H](C(=O)N[C@@H](Cc1cnc[nH]1)C(=O)N[C@@H](CC(N)=O)C(=O)N[C@@H](Cc1ccccc1)C(N)=O)C(C)C)C(C)C`, the Activity entry is “Non-Toxic”.

Take `CC[C@H](C)[C@H](NC(=O)[C@H](CCC(=O)O)NC(=O)[C@H](CO)NC(=O)[C@@H](NC(=O)[C@H](CO)NC(C)=O)C(C)C)C(=O)N[C@@H](CCC(N)=O)C(=O)N[C@@H](CC(C)C)C(=O)N[C@@H](CCSC)C(=O)N[C@@H](Cc1cnc[nH]1)C(=O)N[C@@H](CC(N)=O)C(=O)N[C@@H](CC(C)C)C(=O)NCC(=O)N[C@@H](CCCCN)C(=O)N[C@@H](Cc1cnc[nH]1)C(=O)N[C@@H](CC(C)C)C(=O)N[C@@H](CC(N)=O)C(=O)N[C@@H](CO)C(=O)N[C@@H](CCSC)C(=O)N[C@@H](CCC(=O)O)C(=O)N[C@@H](CCCNC(=N)N)C(=O)N[C@H](C(=O)N[C@@H](CCC(=O)O)C(=O)N[C@@H](Cc1c[nH]c2ccccc12)C(=O)N[C@@H](C)C(=O)N[C@@H](CCCNC(=N)N)C(=O)N[C@@H](CCCCN)C(=O)N[C@@H](CCCCN)C(=O)N[C@@H](CC(C)C)C(=O)N[C@@H](CCC(N)=O)C(=O)N[C@@H](CC(=O)O)C(=O)N[C@H](C(=O)N[C@@H](Cc1cnc[nH]1)C(=O)N[C@@H](CC(N)=O)C(=O)N[C@@H](Cc1ccccc1)C(N)=O)C(C)C)C(C)C`: the Activity result was “Non-Toxic”.

Regarding `CC[C@H](C)[C@H](NC(=O)[C@H](CCC(=O)O)NC(=O)[C@H](CO)NC(=O)[C@@H](NC(=O)[C@H](CO)NC(C)=O)C(C)C)C(=O)N[C@@H](CCC(N)=O)C(=O)N[C@@H](CC(C)C)C(=O)N[C@@H](CCSC)C(=O)N[C@@H](Cc1cnc[nH]1)C(=O)N[C@@H](CC(N)=O)C(=O)N[C@@H](CC(C)C)C(=O)NCC(=O)N[C@@H](CCCCN)C(=O)N[C@@H](Cc1cnc[nH]1)C(=O)N[C@@H](CC(C)C)C(=O)N[C@@H](CC(N)=O)C(=O)N[C@@H](CO)C(=O)N[C@@H](CCSC)C(=O)N[C@@H](CCC(=O)O)C(=O)N[C@@H](CCCNC(=N)N)C(=O)N[C@H](C(=O)N[C@@H](CCC(=O)O)C(=O)N[C@@H](Cc1c[nH]c2ccccc12)C(=O)N[C@@H](CC(C)C)C(=O)N[C@@H](CCCNC(=N)N)C(=O)N[C@@H](CCCCN)C(=O)N[C@@H](CCCCN)C(=O)N[C@@H](C)C(=O)N[C@@H](CCC(N)=O)C(=O)N[C@@H](CC(=O)O)C(=O)N[C@H](C(=O)N[C@@H](Cc1cnc[nH]1)C(=O)N[C@@H](CC(N)=O)C(=O)N[C@@H](Cc1ccccc1)C(N)=O)C(C)C)C(C)C`, the Activity result is listed as “Non-Toxic”.

Consider `CC[C@H](C)[C@H](NC(=O)[C@H](CCC(=O)O)NC(=O)[C@H](CO)NC(=O)[C@@H](NC(=O)[C@H](CO)NC(C)=O)C(C)C)C(=O)N[C@@H](CCC(N)=O)C(=O)N[C@@H](CC(C)C)C(=O)N[C@@H](CCSC)C(=O)N[C@@H](Cc1cnc[nH]1)C(=O)N[C@@H](CC(N)=O)C(=O)N[C@@H](CC(C)C)C(=O)NCC(=O)N[C@@H](CCCCN)C(=O)N[C@@H](Cc1cnc[nH]1)C(=O)N[C@@H](CC(C)C)C(=O)N[C@@H](CC(N)=O)C(=O)N[C@@H](CO)C(=O)N[C@@H](CCSC)C(=O)N[C@@H](CCC(=O)O)C(=O)N[C@@H](CCCNC(=N)N)C(=O)N[C@H](C(=O)N[C@@H](CCC(=O)O)C(=O)N[C@@H](Cc1c[nH]c2ccccc12)C(=O)N[C@@H](CC(C)C)C(=O)N[C@@H](CCCNC(=N)N)C(=O)N[C@@H](CCCCN)C(=O)N[C@@H](C)C(=O)N[C@@H](CC(C)C)C(=O)N[C@@H](CCC(N)=O)C(=O)N[C@@H](CC(=O)O)C(=O)N[C@H](C(=O)N[C@@H](Cc1cnc[nH]1)C(=O)N[C@@H](CC(N)=O)C(=O)N[C@@H](Cc1ccccc1)C(N)=O)C(C)C)C(C)C`, for which the Activity entry is reported as “Non-Toxic”.

For `CC[C@H](C)[C@H](NC(=O)[C@H](CCC(=O)O)NC(=O)[C@H](CO)NC(=O)[C@@H](NC(=O)[C@H](CO)NC(C)=O)C(C)C)C(=O)N[C@@H](CCC(N)=O)C(=O)N[C@@H](CC(C)C)C(=O)N[C@@H](CCSC)C(=O)N[C@@H](Cc1cnc[nH]1)C(=O)N[C@@H](CC(N)=O)C(=O)N[C@@H](CC(C)C)C(=O)NCC(=O)N[C@@H](CCCCN)C(=O)N[C@@H](C)C(=O)N[C@@H](CC(C)C)C(=O)N[C@@H](CC(N)=O)C(=O)N[C@@H](CO)C(=O)N[C@@H](CCSC)C(=O)N[C@@H](CCC(=O)O)C(=O)N[C@@H](CCCNC(=N)N)C(=O)N[C@H](C(=O)N[C@@H](CCC(=O)O)C(=O)N[C@@H](Cc1c[nH]c2ccccc12)C(=O)N[C@@H](CC(C)C)C(=O)N[C@@H](CCCNC(=N)N)C(=O)N[C@@H](CCCCN)C(=O)N[C@@H](CCCCN)C(=O)N[C@@H](CC(C)C)C(=O)N[C@@H](CCC(N)=O)C(=O)N[C@@H](CC(=O)O)C(=O)N[C@H](C(=O)N[C@@H](Cc1cnc[nH]1)C(=O)N[C@@H](CC(N)=O)C(=O)N[C@@H](Cc1ccccc1)C(N)=O)C(C)C)C(C)C`, the Activity entry is listed as “Non-Toxic”.

Regarding `CC[C@H](C)[C@H](NC(=O)[C@H](CCC(=O)O)NC(=O)[C@H](CO)NC(=O)[C@@H](NC(=O)[C@H](CO)NC(C)=O)C(C)C)C(=O)N[C@@H](CCC(N)=O)C(=O)N[C@@H](CC(C)C)C(=O)N[C@@H](CCSC)C(=O)N[C@@H](Cc1cnc[nH]1)C(=O)N[C@@H](CC(N)=O)C(=O)N[C@@H](CC(C)C)C(=O)NCC(=O)N[C@@H](CCCCN)C(=O)N[C@@H](Cc1cnc[nH]1)C(=O)N[C@@H](CC(C)C)C(=O)N[C@@H](CC(N)=O)C(=O)N[C@@H](CO)C(=O)N[C@@H](CCSC)C(=O)N[C@@H](CCC(=O)O)C(=O)N[C@@H](CCCNC(=N)N)C(=O)N[C@H](C(=O)N[C@@H](CCC(=O)O)C(=O)N[C@@H](Cc1c[nH]c2ccccc12)C(=O)N[C@@H](CC(C)C)C(=O)N[C@@H](CCCNC(=N)N)C(=O)N[C@@H](CCCCN)C(=O)N[C@@H](CCCCN)C(=O)N[C@@H](CC(C)C)C(=O)N[C@@H](CCC(N)=O)C(=O)N[C@@H](CC(=O)O)C(=O)N[C@H](C(=O)N[C@@H](Cc1cnc[nH]1)C(=O)N[C@@H](C)C(=O)N[C@@H](Cc1ccccc1)C(N)=O)C(C)C)C(C)C`, the Activity entry is recorded as “Non-Toxic”.

For the compound `CC[C@H](C)[C@H](NC(=O)[C@H](CCC(=O)O)NC(=O)[C@H](CO)NC(=O)[C@@H](NC(=O)[C@H](CO)NC(C)=O)C(C)C)C(=O)N[C@@H](CCC(N)=O)C(=O)N[C@@H](CC(C)C)C(=O)N[C@@H](CCSC)C(=O)N[C@@H](Cc1cnc[nH]1)C(=O)N[C@@H](CC(N)=O)C(=O)N[C@@H](CC(C)C)C(=O)NCC(=O)N[C@@H](CCCCN)C(=O)N[C@@H](Cc1cnc[nH]1)C(=O)N[C@@H](CC(C)C)C(=O)N[C@@H](CC(N)=O)C(=O)N[C@@H](CO)C(=O)N[C@@H](CCSC)C(=O)N[C@@H](CCC(=O)O)C(=O)N[C@@H](CCCNC(=N)N)C(=O)N[C@H](C(=O)N[C@@H](CCC(=O)O)C(=O)N[C@@H](C)C(=O)N[C@@H](CC(C)C)C(=O)N[C@@H](CCCNC(=N)N)C(=O)N[C@@H](CCCCN)C(=O)N[C@@H](CCCCN)C(=O)N[C@@H](CC(C)C)C(=O)N[C@@H](CCC(N)=O)C(=O)N[C@@H](CC(=O)O)C(=O)N[C@H](C(=O)N[C@@H](Cc1cnc[nH]1)C(=O)N[C@@H](CC(N)=O)C(=O)N[C@@H](Cc1ccccc1)C(N)=O)C(C)C)C(C)C`, the Activity result is on record as “Non-Toxic”.

Consider `CC[C@H](C)[C@H](NC(=O)[C@H](CCC(=O)O)NC(=O)[C@H](CO)NC(=O)[C@@H](NC(=O)[C@H](CO)NC(C)=O)C(C)C)C(=O)N[C@@H](CCC(N)=O)C(=O)N[C@@H](CC(C)C)C(=O)N[C@@H](CCSC)C(=O)N[C@@H](Cc1cnc[nH]1)C(=O)N[C@@H](CC(N)=O)C(=O)N[C@@H](CC(C)C)C(=O)NCC(=O)N[C@@H](CCCCN)C(=O)N[C@@H](Cc1cnc[nH]1)C(=O)N[C@@H](CC(C)C)C(=O)N[C@@H](CC(N)=O)C(=O)N[C@@H](C)C(=O)N[C@@H](CCSC)C(=O)N[C@@H](CCC(=O)O)C(=O)N[C@@H](CCCNC(=N)N)C(=O)N[C@H](C(=O)N[C@@H](CCC(=O)O)C(=O)N[C@@H](Cc1c[nH]c2ccccc12)C(=O)N[C@@H](CC(C)C)C(=O)N[C@@H](CCCNC(=N)N)C(=O)N[C@@H](CCCCN)C(=O)N[C@@H](CCCCN)C(=O)N[C@@H](CC(C)C)C(=O)N[C@@H](CCC(N)=O)C(=O)N[C@@H](CC(=O)O)C(=O)N[C@H](C(=O)N[C@@H](Cc1cnc[nH]1)C(=O)N[C@@H](CC(N)=O)C(=O)N[C@@H](Cc1ccccc1)C(N)=O)C(C)C)C(C)C`, for which the Activity entry is on record as “Non-Toxic”.
